#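 Values below derive from 48-hour exposures of cells grown in 96-well plates, with endpoints linearly interpolated between the two concentrations bracketing the appropriate inhibition level. TGI is the concentration that stops growth completely.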
# Columns and labels:
# Assay in all cases: NCI tumour cell line growth inhibition, 48 h
# [1] = test system: SW-620 colon
# [2] = test system: SNB-75 CNS
# [3] = test system: SK-MEL-5 melanoma
# [4] = test system: CCRF-CEM leukemia
# [5] = test system: DU-145 prostate
# [6] = test system: NCI-H226 lung
# [7] = test system: TK-10 renal
# [8] = test system: SF-295 CNS
# [9] = test system: HCT-116 colon
# [10] = test system: HOP-62 NSCLC
# [11] = test system: NCI/ADR-RES ovarian
# [12] = test system: HL-60(TB) leukemia
# [13] = test system: UACC-257 melanoma
# [14] = test system: HOP-92 NSCLC
# [15] = test system: SNB-19 CNS
# [16] = test system: M14 melanoma
# [17] = test system: OVCAR-8 ovarian
# [18] = test system: SF-539 CNS
# [19] = test system: OVCAR-3 ovarian
# [20] = test system: COLO 205 colon
# [21] = test system: OVCAR-4 ovarian
# [22] = test system: HT29 colon
# [23] = test system: SK-OV-3 ovarian
# [24] = test system: SF-268 CNS
# [25] = test system: CAKI-1 renal
# [26] = test system: MALME-3M melanoma
# [27] = test system: EKVX NSCLC
# [28] = test system: KM12 colon
# [29] = test system: A549 NSCLC
# [30] = test system: NCI-H23 lung
# [31] = test system: SR leukemia
# [32] = test system: SK-MEL-28 melanoma
# [33] = test system: HCT-15 colon
# [34] = test system: MDA-N
# [35] = test system: RPMI-8226 leukemia
# [36] = test system: MDA-MB-435
# [37] = test system: U251 CNS
# [38] = test system: SK-MEL-2 melanoma
# [39] = test system: HS 578T breast
# [40] = test system: RXF 393 renal
# [41] = test system: BT-549 breast
# [42] = test system: NCI-H460 lung
# [43] = test system: 786-0 renal
# [44] = test system: IGROV1 ovarian
# [45] = test system: LOX IMVI melanoma
# [46] = test system: T-47D breast
# [47] = test system: NCI-H522 lung
# [48] = test system: ACHN renal
# [49] = test system: MCF7 breast
# [50] = test system: K-562 leukemia
# [51] = test system: MDA-MB-231 breast
# [52] = test system: MOLT-4 leukemia
# [53] = test system: PC-3 prostate
# [54] = test system: OVCAR-5 ovarian
# [55] = test system: UO-31 renal
# [56] = test system: UACC-62 melanoma
# [57] = test system: SN12C renal
# [58] = test system: A498 renal
smiles,measurement,setting,value
CSc1cccc(NC(=O)OC2CCCCCCCCCCC2)c1,TGI,[1],45.9 µM
same,TGI,[2],> 100 µM
same,TGI,[3],29.1 µM
same,TGI,[4],45.5 µM
same,TGI,[5],> 100 µM
same,TGI,[6],61.7 µM
same,TGI,[7],75.1 µM
same,TGI,[8],57.9 µM
same,TGI,[9],38.9 µM
same,TGI,[10],48.3 µM
same,TGI,[11],64.5 µM
same,TGI,[12],35.1 µM
same,TGI,[13],38.7 µM
same,TGI,[14],> 100 µM
same,TGI,[15],> 100 µM
same,TGI,[16],59.5 µM
same,TGI,[17],> 100 µM
same,TGI,[18],63.7 µM
same,TGI,[19],29.6 µM
same,TGI,[20],28.3 µM
same,TGI,[21],45.6 µM
same,TGI,[22],43.8 µM
same,TGI,[23],57.9 µM
same,TGI,[24],> 100 µM
same,TGI,[25],61 µM
same,TGI,[26],59.1 µM
same,TGI,[27],57.6 µM
same,TGI,[28],31.5 µM
same,TGI,[29],> 100 µM
same,TGI,[30],98 µM
same,TGI,[31],> 100 µM
same,TGI,[32],> 100 µM
same,TGI,[33],> 100 µM
same,TGI,[34],60.8 µM
same,TGI,[35],54.4 µM
same,TGI,[36],39.9 µM
same,TGI,[37],41 µM
same,TGI,[38],39.4 µM
same,TGI,[39],> 100 µM
same,TGI,[40],70.9 µM
same,TGI,[41],> 100 µM
same,TGI,[42],35.2 µM
same,TGI,[43],53.9 µM
same,TGI,[44],> 100 µM
same,TGI,[45],35.1 µM
same,TGI,[46],> 100 µM
same,TGI,[47],37.1 µM
same,TGI,[48],> 100 µM
same,TGI,[49],60.4 µM
same,TGI,[50],93.7 µM
same,TGI,[51],66.8 µM
same,TGI,[52],> 100 µM
same,TGI,[53],> 100 µM
same,TGI,[54],> 100 µM
same,TGI,[55],22 µM
same,TGI,[56],52.7 µM
same,TGI,[57],33.2 µM
same,TGI,[58],62.3 µM
